In patent publication US6593342B1, “Pharmaceutical compositions comprising 2-quinolones” (Laboratoire L. Lafon, priority 1998, dated 2003):

Experiments:
U-87MG = test: MTT test, U-87MG; assay type: cell-based; details: Homo sapiens, 10^−5 M, 72 hours, control = 100%, mean ± SEM, read-out: average optical density (MTT), percentage relative to control
Procedure: (§1) The influence of the compounds of formulae (I) and (Ia) on non-clonogenic cells was evaluated with the aid of the MTT calorimetric test.
(§2) The principle of the MTT test is based on the mitochondrial reduction, by the metabolically active live cells, of the yellow-colored product MTT (3-(4,5-dimethylthiazol-2-yl)-2,5-diphenyltetrazolium bromide) to a blue-colored product, formazan. The amount of formazan thus obtained is directly proportional to the amount of live cells present in the culture well(s). This amount of formazan is measured by spectrophotometry.
(§3) The cell lines are maintained as a monolayer culture at 37° C. in stoppered culture dishes containing MEM 25 MM HEPES (Minimum Essential Medium) base medium. This medium is suited to the growth of a range of various mammalian diploid or primary cells. This medium is then supplemented with:
(§4) an amount of 5% of FCS (Foetal Calf Serum) decomplemented at 56° C. for 1 hour,
(§5) 0.6 mg/ml of L-glutamine,
(§6) 200 μg/ml of streptomycin,
(§7) The 12 human cancer cell lines which were used were obtained from the American Type Culture Collection (ATCC, Rockville, Md., USA). These 12 cell lines are:
U-373MG (code ATCC: HTB-17) and U-87MG (code ATCC: HTB-14) which are two glioblastomas,
(§8) Experimentally: 100 μl of a cell suspension containing 20 000 to 50 000 (depending on the cell type used) cells/ml of culture medium are inoculated in 96-well flat-bottomed multi-well plates and are incubated at 37° C., under an atmosphere comprising 5% CO2 and 70% humidity. After incubation for 24 hours, the culture medium is replaced with 100 μl of fresh medium containing either the various test compounds at concentrations ranging from 10^−5 to 10^−10 M or the solvent used to dissolve the test products (control condition). After incubation for 72 hours under the above conditions, the culture medium is replaced with 100 μl of a yellowish solution of MTT dissolved at a rate of 1 mg/ml in RPMI 1640. The microplates are reincubated for 3 hours at 37° C. and are then centrifuged for 10 minutes at 400×g. The yellowish solution of MTT is removed and the blue formazan crystals formed in the cell are dissolved in 100 μl of DMSO. The microplates are then shaken for 5 minutes. The intensity of the resulting blue coloration, and thus of the conversion of the yellow product MTT into blue formazan by the cells that are still alive at the end of the experiment, is quantified by spectrophotometry using a Dynatech Immunoassay System machine at wavelengths of 570 nm and 630 nm corresponding, respectively, to the maximum absorption wavelengths of formazan and to the background noise. Software incorporated in the spectrophotometer calculates the average optical density values and the standard deviation (SD) and standard error of mean (SEM) values.
(§9) By way of example, the results of the average optical density, expressed as a percentage relative to the average optical density measured under the control condition (set equal to 100%), obtained at a concentration of 10^−5 M on the 12 abovementioned tumor cell lines are given in Table II.

MCF7 = test: Clonogenic test (soft agar colony growth), MCF7; assay type: cell-based, human; details: 21 days, control = 100%, mean ± SEM
From the text: 1—Interaction (Stimulation or Inhibition of Proliferation) With the Generation of Clonogenic Cells (Clonogenic Test)
The test used is that described by Hamburger et al. (Science, 1977; 197, 461-463) and Salmon et al. (New England J. Med., 298, 1321-1327). A cell is considered clonogenic if it has the capacity to proliferate and to give rise to a cell colony. “Human tumor stem cells” are the cells which are the source of the neoplastic cells which constitute a given tumor. These tumor stem cells are responsible for the relapse processes which may be observed after surgical resection of primary tumors and are also responsible for the formation of metastases. In a tumor or a tumor cell line, these clonogenic stem cells differ from the other cells of the tumor or from the neoplastic cell line under consideration in that they conserve their capacity to proliferate in the absence of any solid support.
In this test, the tumor cells are cultured on a semi-solid support consisting of agar. […] In a tumor cell population, cultured on such a support, it is these clonogenic cells (associated with an unlimited number of cell divisions and whose proliferation is referred to by M. I. Dawson as “anchorage-independent [clonal] growth”) which are capable of growing. The percentage of these clonogenic cells in a tumor or a cell line ranges between 0.1% and 0.001%.
The influence of the compounds of formulae (I) and (Ia) on the growth of the cell colonies obtained by culturing, for example, the mammalian tumor lines MCF7 and MXT and the colorectal line HT-29 on the semi-liquid culture medium known as “soft agar” was measured. On such a medium, only the clonogenic cells referred to by M. I. Dawson as “anchorage-independent (clonal) cells” survive and grow. The growth of these cells in such a “non-adherent” mode bears witness to their degree of tumorigenicity. The inhibition of the growth of the size of a tumor in which a larger number of clonogenic cells has developed then becomes the evidence of reinforced cytotoxic activity.
Conversely, this test can also reveal that a compound is capable of inhibiting the generation/proliferation of clonogenic cells, thus making the tumor less able to grow and thus reducing the population of tumor cells.
The tumor cell lines studied are maintained in culture in 25 cm^2 falcon dishes. They are then trypsinized and the cells are fully dissociated from each other. The percentage of live cells is determined after staining with trypan blue. A cell suspension at a concentration of from 5·10^4 to 15·10^4 cells/ml (depending on the cell type under consideration) is prepared in a 0.3% agar solution. Next, 200 μl of this suspension are inoculated in Petri dishes 35 mm in diameter, in which are placed 3 ml of a base layer consisting of a 0.5% agar solution. The 200 μl of cell suspension are in turn covered with 1.8 ml of an upper layer consisting of a 0.3% agar solution. The dishes are then placed in an incubator at 37° C., 5% CO2 and 70% humidity until the treatment. This treatment is carried out about 1 to 2 hours after the inoculation. The test compounds are prepared at a concentration 100 times greater than the desired concentration and 50 μl of these treating solutions are placed over the upper layer of agar in the corresponding dishes. In the present study, the final concentration of the test products is 10^−5, 10^−7 and 10^−9 M. The dishes are then kept in an incubator for 21 days. On the 21st day the dishes are treated by depositing on the upper layer 100 μl of a 1 mg/ml solution of MTT (3-(4,5-dimethylthiazol-2-yl)-2,5-diphenyltetrazolinium bromide prepared with RPMI 1640 medium) for 3 h at 37° C. After this period, the cell colonies are fixed by adding 2 ml of formalin per dish. After fixing for 24 hours, the formalin is evaporated off and the number of stained cell colonies, thus consisting of metabolically active cells, and whose surface area is greater than 100 μm^2, is determined using an inverted microscope. […]

A-427 = test: MTT test, A-427; assay type: cell-based; details: Homo sapiens, 10^−5 M, 72 hours, control = 100%, mean ± SEM, read-out: average optical density (MTT), percentage relative to control
Procedure: as §1, §2, §3, §4, §5, §6, §7
A549 (code ATCC: CCL-185) and A-427 (code ATCC: HTB-53) which are two non-small-cell lung cancers,
as §8, §9

COc1ccc(-c2cc3c(OC)cc(OC)cc3[nH]c2=O)cc1 [CRL8246, 5,7-Dimethoxy-3-(4-methoxyphenyl)-1,2-dihydro-2-quinolinone]
viability at 10 µM (U-87MG): 92.1 ± 1.5% | average number of clones of clonogenic cells, percentage relative to control (MCF7; 10^−5 M): 126.8 ± 9.9% | average number of clones of clonogenic cells, percentage relative to control (MCF7; 10^−7 M): 145.7 ± 8.9% | average number of clones of clonogenic cells, percentage relative to control (MCF7; 10^−9 M): 139.1 ± 6.6% | viability at 10 µM (A-427): 101 ± 0.9%

CCN(CC)C(=O)Cn1c(=O)c(-c2ccc(OC)cc2)cc2c(OC)cc(OC)cc21 [CRL8315, N,N-Diethyl-2-[5,7-dimethoxy-3-(4-methoxy-phenyl)-2-oxo-1,2-dihydro-1-quinolinyl]acetamide]
viability at 10 µM (U-87MG): 87.6 ± 4.5% | average number of clones of clonogenic cells, percentage relative to control (MCF7; 10^−5 M): 119.6 ± 5.6% | average number of clones of clonogenic cells, percentage relative to control (MCF7; 10^−7 M): 127 ± 8.8% | average number of clones of clonogenic cells, percentage relative to control (MCF7; 10^−9 M): 157.1 ± 12.2% | viability at 10 µM (A-427): 92.6 ± 2.1%

CCN(CC)C(=O)CCn1c(=O)c(-c2ccc(OC)cc2)cc2c(OC)cc(OC)cc21 [CRL8283, N,N-Diethyl-3-[5,7-dimethoxy-3-(4-methoxy-phenyl)-2-oxo-1,2-dihydro-1-quinolinyl]propanamide]
viability at 10 µM (U-87MG): 69.9 ± 3.4% | average number of clones of clonogenic cells, percentage relative to control (MCF7; 10^−5 M): 56.5 ± 4.9% | average number of clones of clonogenic cells, percentage relative to control (MCF7; 10^−7 M): 106.2 ± 4.8% | average number of clones of clonogenic cells, percentage relative to control (MCF7; 10^−9 M): 97.4 ± 5.8% | viability at 10 µM (A-427): 73.1 ± 1.7%

COc1ccc(-c2cc3c(OC)cc(OC)cc3n(CCN(C)C)c2=O)cc1 [CRL8316, 1-[2-(Dimethylamino)ethyl]-5,7-dimethoxy-3-(4-methoxyphenyl)-1,2-dihydro-2-quinolinone]
viability at 10 µM (U-87MG): 74.3 ± 1.4% | average number of clones of clonogenic cells, percentage relative to control (MCF7; 10^−5 M): 23.2 ± 1.8% | average number of clones of clonogenic cells, percentage relative to control (MCF7; 10^−7 M): 84 ± 5% | average number of clones of clonogenic cells, percentage relative to control (MCF7; 10^−9 M): 83.4 ± 4.6% | viability at 10 µM (A-427): 79.1 ± 4.8%

COc1ccc(-c2cc3c(OC)cc(OC)cc3n(CCc3nnn[nH]3)c2=O)cc1 [CRL8256, 1-[2-(1H-1,2,3,4-Tetrazol-5-yl)ethyl]-5,7-dimethoxy-3-(4-methoxyphenyl)-1,2-dihydro-2-quinolinone]
viability at 10 µM (U-87MG): 84.7 ± 1.7% | average number of clones of clonogenic cells, percentage relative to control (MCF7; 10^−5 M): 51.6 ± 3.7% | average number of clones of clonogenic cells, percentage relative to control (MCF7; 10^−7 M): 83.8 ± 3.4% | average number of clones of clonogenic cells, percentage relative to control (MCF7; 10^−9 M): 97.9 ± 5.6% | viability at 10 µM (A-427): 81.1 ± 2.9%

COc1ccc(-c2cc3c(OC)cc(OC)cc3n(CCC#N)c2=O)cc1 [CRL8247, 3-[5,7-Dimethoxy-3-(4-methoxyphenyl)-2-oxo-1,2-dihydro-1-quinolinyl]propanenitrile]
viability at 10 µM (U-87MG): 59 ± 2.3% | average number of clones of clonogenic cells, percentage relative to control (MCF7; 10^−5 M): 51.5 ± 2.8% | average number of clones of clonogenic cells, percentage relative to control (MCF7; 10^−7 M): 81.9 ± 1.2% | average number of clones of clonogenic cells, percentage relative to control (MCF7; 10^−9 M): 98.3 ± 4.2% | viability at 10 µM (A-427): 57 ± 1.5%
